Molecular target: T1, GABA A receptors containing the α5 subunit (α5β3γ2) (Homo sapiens, UniProt P18507+P31644)
T1 construct: expressed in transfected cells; host or cells: HEK293 (transiently transfected); membranes prepared from cell pellets
Assay: [3H]flumazenil competition binding assay, human GABA A receptor (hKi)
Conditions: human receptor transiently transfected in HEK293 cells, means of two determinations
Protocol: The affinity of compounds at GABA A receptor subtypes was measured by competition for [3H]flumazenil (85 Ci/mmol; Roche) binding to HEK293 cells expressing rat (stably transfected) or human (transiently transfected) receptors of composition α1β3γ2, α2β3γ2, α3β3γ2 and α5β3γ2.
Cell pellets were suspended in Krebs-tris buffer (4.8 mM KCl, 1.2 mM CaCl2, 1.2 mM MgCl2, 120 mM NaCl, 15 mM Tris; pH 7.5; binding assay buffer), homogenized by polytron for ca. 20 sec on ice and centrifuged for 60 min at 4° C. (50000 g; Sorvall, rotor: SM24=20000 rpm). The cell pellets were resuspended in Krebs-tris buffer and homogenized by polytron for ca. 15 sec on ice. Protein was measured (Bradford method, Bio-Rad) and aliquots of 1 mL were prepared and stored at −80° C.
Radioligand binding assays were carried out in a volume of 200 μL (96-well plates) which contained 100 μL of cell membranes, [3H]flumazenil at a concentration of 1 nM for α1, α2, α3 subunits and 0.5 nM for α5 subunits and the test compound in the range of […]. Nonspecific binding was defined by 10^−5 M diazepam and typically represented less than 5% of the total binding. Assays were incubated to equilibrium for 1 hour at. 4° C. and harvested onto GF/C uni-filters (Packard) by filtration using a Packard harvester and washing with ice-cold wash buffer (50 mM Tris; pH 7.5). After drying, filter-retained radioactivity was detected by liquid scintillation counting. Ki values were calculated using Excel-Fit (Microsoft) and are the means of two determinations.

How did the Ki turn out when “5-[(5-Methyl-3-phenyl-isoxazol-4-ylmethyl)-amino]-pyrazine-2-carboxylic acid (tetrahydro-pyran-4-yl)-amide [Example 11]” was run?
The Ki was 12.1 nM.

With “5-[(5-Methyl-3-phenyl-isoxazol-4-ylmethyl)-amino]-pyrazine-2-carboxylic acid cyclopropylamide [Example 10]” as the molecule, how does the Ki read?
The Ki was 10.4 nM.

COC(=O)c1cnc(OCc2c(-c3ccccc3)noc2C)cn1 [Example 1, 5-(5-Methyl-3-phenyl-isoxazol-4-ylmethoxy)-pyrazine-2-carboxylic acid methyl ester] was tested. Which Ki did it give?
The Ki was 29 nM.

For Cc1onc(-c2ccccc2)c1COc1cnc(C(=O)NCC2CC2)cn1 [Example 2, 5-(5-Methyl-3-phenyl-isoxazol-4-ylmethoxy)-pyrazine-2-carboxylic acid cyclopropylmethyl-amide], which Ki is on record?
Its Ki is 3.1 nM.

Cc1onc(-c2ccccc2)c1COc1cnc(C(=O)NC(C)C)cn1 [Example 3, 5-(5-Methyl-3-phenyl-isoxazol-4-ylmethoxy)-pyrazine-2-carboxylic acid isopropylamide] was tested. Which Ki did it give?
Its Ki is 1.2 nM.

For Cc1onc(-c2ccccc2)c1COc1cnc(C(=O)NC(C)(C)C)cn1 [Example 4, 5-(5-Methyl-3-phenyl-isoxazol-4-ylmethoxy)-pyrazine-2-carboxylic acid tert-butylamide], which Ki is on record?
Its Ki is 10.8 nM.

Which Ki does the source give for Cc1onc(-c2ccccc2)c1COc1cnc(C(=O)NC2CC2)cn1 [Example 5, 5-(5-Methyl-3-phenyl-isoxazol-4-ylmethoxy)-pyrazine-2-carboxylic acid cyclopropylamide] here?
Its Ki is 1.9 nM.

Cc1onc(-c2ccccc2)c1COc1cnc(C(=O)NC2CCOCC2)cn1 [Example 6, 5-(5-Methyl-3-phenyl-isoxazol-4-ylmethoxy)-pyrazine-2-carboxylic acid (tetrahydro-pyran-4-yl)-amide] was tested. Which Ki did it give?
The Ki was 1.2 nM.

Which Ki does the source give for Cc1onc(-c2ccccc2)c1COc1cnc(C(=O)NC2CCC(F)(F)CC2)cn1 [Example 7, 5-(5-Methyl-3-phenyl-isoxazol-4-ylmethoxy)-pyrazine-2-carboxylic acid (4,4-difluoro-cyclohexyl)-amide] here?
The Ki was 10.6 nM.

For Cc1onc(-c2ccccc2)c1COc1cnc2ccccc2n1 [Example 8, 2-(5-Methyl-3-phenyl-isoxazol-4-ylmethoxy)-quinoxaline], which Ki is on record?
Its Ki is 7.4 nM.

With Cc1onc(-c2ccccc2)c1CNc1cnc(C(=O)NC(C)C)cn1 [Example 9, 5-[(5-Methyl-3-phenyl-isoxazol-4-ylmethyl)-amino]-pyrazine-2-carboxylic acid isopropylamide] as the molecule, how does the Ki read?
The Ki was 9.6 nM.

For Cc1onc(-c2ccc(F)cn2)c1COc1cnc(C(=O)NC2CCOCC2)cn1 [Example 12, 5-[3-(5-Fluoro-pyridin-2-yl)-5-methyl-isoxazol-4-ylmethoxy]-pyrazine-2-carboxylic acid (tetrahydro-pyran-4-yl)-amide], which Ki is on record?
Its Ki is 0.3 nM.

How did the Ki turn out when O=C(NCC(F)(F)F)c1cnc(OCc2conc2-c2ccc(F)cc2)cn1 [Example 13, 5-[3-(4-Fluoro-phenyl)-isoxazol-4-ylmethoxy]-pyrazine-2-carboxylic acid (2,2,2-trifluoro-ethyl)-amide] was run?
The Ki was 24 nM.

Which Ki does the source give for O=C(NCC1CC1)c1cnc(OCc2conc2-c2ccc(F)cc2)cn1 [Example 14, 5-[3-(4-Fluoro-phenyl)-isoxazol-4-ylmethoxy]-pyrazine-2-carboxylic acid cyclopropylmethyl-amide] here?
Its Ki is 21 nM.

Which Ki does the source give for CC(C)NC(=O)c1cnc(OCc2conc2-c2ccc(F)cc2)cn1 [Example 15, 5-[3-(4-Fluoro-phenyl)-isoxazol-4-ylmethoxy]-pyrazine-2-carboxylic acid isopropylamide] here?
The Ki was 11 nM.

CC(C)NC(=O)c1cnc(OCc2conc2-c2ccc(Cl)cc2)cn1 [Example 16, 5-[3-(4-Chloro-phenyl)-isoxazol-4-ylmethoxy]-pyrazine-2-carboxylic acid isopropylamide] was tested. Which Ki did it give?
The Ki was 11.6 nM.

C[C@@H](CO)NC(=O)c1cnc(OCc2conc2-c2ccc(Cl)cc2)cn1 [Example 17, 5-[3-(4-Chloro-phenyl)-isoxazol-4-ylmethoxy]-pyrazine-2-carboxylic acid ((S)-2-hydroxy-1-methyl-ethyl)-amide] was tested. Which Ki did it give?
Its Ki is 32 nM.

How did the Ki turn out when C[C@H](CO)NC(=O)c1cnc(OCc2conc2-c2ccc(Cl)cc2)cn1 [Example 18, 5-[3-(4-Chloro-phenyl)-isoxazol-4-ylmethoxy]-pyrazine-2-carboxylic acid ((R)-2-hydroxy-1-methyl-ethyl)-amide] was run?
The Ki was 7.4 nM.

For O=C(NC1CCOCC1)c1cnc(OCc2conc2-c2ccccn2)cn1 [Example 19, 5-(3-Pyridin-2-yl-isoxazol-4-ylmethoxy)-pyrazine-2-carboxylic acid (tetrahydro-pyran-4-yl)-amide], which Ki is on record?
Its Ki is 14.3 nM.

CC(C)NC(=O)c1cnc(OCc2conc2-c2ccccn2)cn1 [Example 20, 5-(3-Pyridin-2-yl-isoxazol-4-ylmethoxy)-pyrazine-2-carboxylic acid isopropylamide] was tested. Which Ki did it give?
The Ki was 9.6 nM.

With O=C(NC1CC1)c1cnc(OCc2conc2-c2ccccn2)cn1 [Example 21, 5-(3-Pyridin-2-yl-isoxazol-4-ylmethoxy)-pyrazine-2-carboxylic acid cyclopropylamide] as the molecule, how does the Ki read?
Its Ki is 13.7 nM.

— patent publication US7902201B2, “Isoxazolo-pyrazine derivatives” (Hoffmann-La Roche Inc., priority 2007, dated 2011)
